Like-named read-outs stand apart in the source and are kept apart here.
Assays:
[1] = test system: T-47D cells; assay: Effect of inhibitors on T-47D cell proliferation (DNA content); type: cell-based, human
Experimental: FIGS. 3A and 3B are graphs showing the effect compounds used in a method according preferred embodiment of the present invention, on cell proliferation. In particular, they relate to the effect of selected BSD and BNSD derivatives on T-47D cell proliferation. Cells were incubated for 9 d with the indicated concentrations of BSD-2 (∘), BNSD-4 (●), BSD-4 (□), BNSD-6 (▪), BSD-10 (Δ), BSD-4-ene (▴) and BSD-4-yne (▾) in medium containing 1 mM aminoguanidine, and total DNA content per culture was then determined. B, Effect of BNSD-X (N,N,N′,N′-tetrakis-(3-aminopropyl)-p-diaminoxylene) on cell proliferation in various mammalian cell lines. Jurkat (∘), LAN-1 (●), L1210 (□), T-47D (▪), ZR-75-1 (Δ) and MDA-MB-231 (▴) cells were grown to near confluency or saturation (for 4 to 11 d according to the cell line considered) with the indicated concentrations of BNSD-X in the presence of 1 mM aminoguanidine, and total DNA content per culture was then determined. Data are given as the mean±SD for triplicate cultures from one out of at least two identical experiments;
FIGS. 4A and 4B are graphs showing how compounds used in a method according to a preferred embodiment are differentially sensitive to degradation by BSAO (bovine serum amine oxidase). In particular, T-47D cells were incubated for 9 d with the indicated concentrations of BSD-X (∘), BNSD-X (●), BSD-3 (□) or BNSD-3 (▪) in the absence (A) or presence of 1 mM aminoguanidine (B), and total DNA content per culture was then determined. Data are presented as the mean±SD for triplicate cultures from one representative experiment;
The effect of transport inhibitors on cell proliferation was evaluated by determination of cell number (L1210, Jurkat) using electronic sizing with a Model ZM Coulter counter (Coulter Electronics, Hialeah, Fla.), or DNA content per culture (for all other cell lines) with the 3,5-diaminobenzoic acid assay. […] Cytotoxicity of the inhibitors was determined in the presence or absence of aminoguanidine, and was confirmed by a trypan blue exclusion assay.

[2] = test system: CHO-K1 cells; assay: Reversal of DFMO-induced cytostasis by exogenous spermidine in CHO-K1 cells; type: cell-based, Chinese hamster; conditions: DFMO-treated CHO-K1 cells with extracellular spermidine; data not shown
Experimental: (§1) FIGS. 8A and 8B are graphs representing the time course of the effect of a compound used in a method according to a preferred embodiment of the invention on rescue of DFMO-induced cytostasis by exogenous spermidine. In particular, at time zero, T-47D (panel A) or CHO-K1 (panel B) were seeded at 1×10^4 or 5×10^3 cells/well, respectively, in medium containing 1 mM aminoguanidine, plus either 0.3 μM spermidine (Spd, ●), 2 mM DFMO (□), Spd+DFMO (▪), 50 μM (A) or 100 μM (B) BNSD-X (Δ), BNSD-X+Spd (▴), BNSD-X+DFMO (□), BNSD-X+Spd+DFMO (▾), or vehicle only (∘). At the indicated time, total DNA content/well was determined. Data are presented as the mean±SD for triplicate cultures from one representative experiment;
(§2) To determine the ability of polyamine transport antagonists to potentiate DFMO-induced inhibition of cell proliferation in the presence of exogenous polyamines, cells were grown for the indicated period in growth medium supplemented with 1 mM aminoguanidine, and either DFMO (1 to 5 mM), the indicated transport inhibitor (50 or 100 μM), or the combination thereof, as well as increasing concentrations of spermidine (0.1 to 300 μM). Fresh medium was added every other day, and cell mass was determined at various time points during the period of exponential growth, or at the end of the experimental period. For the latter experiments, the FBS supplement was replaced with dextran-coated charcoal-treated FBS (5%, v/v) plus 0.5 μg/ml insulin in the case of T-47D, ZR-75-1 and MCF-7 cells (U.S. Pat. No. 6,083,496).

[3] = test system: mammalian polyamine carrier; assay: Determination of polyamine uptake activity: inhibition of diamine and polyamine transport in T-47D cells; type: cell-based, human; conditions: for Ki: mean±SD
Experimental: The rate of diamine and polyamine transport was determined in T-47D and ZR-75-1 cells incubated in serum-free RPMI 1640 medium as previously described (U.S. Pat. No. 6,083,496; Covassin et al. (1999) Bioorg. Med. Chem. Lett. 9, 1709-1714), using 20 μM [^3H]putrescine (179 Ci/mol), 5 μM [^3H]spermidine (246 Ci/mol) and 3 μM [^14C]spermine (300-400 mCi/mol) respectively, as substrates for a 20-min assay period. Uptake activity was expressed per amount of DNA as fluorometrically determined using 3,5-diaminobenzoic acid (Simard et al. (1990) Endocrinology 126, 3223-3231). Kinetic parameters of polyamine transport inhibition for the transport antagonists were determined by Lineweaver-Burke analysis of uptake activity in the presence of 0.1 μM [^3H]putrescine, 0.03 μM [^3H]spermidine, and 0.01 μM [^14C]spermine plus increasing concentrations of nonradioactive substrate. For competitive inhibitors, Ki values were estimated by iterative curve fitting for sigmoidal equations describing transport rates in the presence of increasing concentrations of antagonist, using the Cheng-Prusoff equation for competitive inhibition (U.S. Pat. No. 6,083,496).
The ability of BSD and BNSD compounds to inhibit uptake of the main natural substrates of the mammalian polyamine carrier, namely putrescine, spermidine and spermine, was evaluated using T-47D human breast cancer cells (Table 1).
Data are presented as the mean±SD of at least two independent determinations of IC50 values, each based on triplicate determinations of uptake velocity at increasing inhibitor concentrations.
The potency of the polyamines and their xylylated dimers as competitive inhibitors of spermidine transport was evaluated in the T-47D human breast cancer cell line (Table 2).

[4] = test system: T-47D cells; assay: Reversal of DFMO-induced cytostasis by exogenous spermidine in T-47D cells; type: cell-based, human; conditions: T-47D cells with extracellular spermidine and DFMO
Experimental: FIGS. 6A, 6B, 6C and 6D are graph showing that antagonism of DFMO-induced cytostasis by exogenous spermidine depends on the polyamine and linker structure of the compounds used in a method according to a preferred embodiment of the invention. In particular, T-47D cells were grown for 8-9 d with the indicated concentrations of spermidine in medium containing 1 mM aminoguanidine, in the presence of DFMO (●), transport inhibitor (□), DFMO plus transport inhibitor (▪), or in the absence of either agent (∘), and total DNA content per culture was then determined. Panels A, B, C, and D describe the effect of BNSD-X, BSD-X, BNSD-3 and BSD-3, respectively. Data are presented as the mean±SD for triplicate cultures from one out of at least two identical experiments;
as §1, §2

[5] = test system: CHO-K1, Jurkat, L1210, MDA-MB-231, ZR-75-1 and MCF-7 cells; assay: Reversal of DFMO-induced cytostasis by exogenous spermidine in a variety of mammalian cell lines; type: cell-based; conditions: most cell lines; concentrations as low as
Experimental: FIGS. 5A, 5B, 5C, 5D, 5E and 5F are graphs representing that a compound used in a method according to a preferred embodiment antagonizes rescue of DFMO-induced cytostasis by exogenous spermidine. In particular, CHO-K1 (A), Jurkat (B), L1210 (C), MDA-MB-231 (D), ZR-75-1 (E) and MCF-7 cells (F) were grown to near confluency or saturation (for 4 to 11 d according to the cell line considered) with the indicated concentrations of spermidine in medium containing 1 mM aminoguanidine, in the presence of DFMO (●), BNSD-X (□), DFMO plus BNSD-X (▪), or in the absence of either agent (∘), and total DNA content per culture was then determined. The optimal concentration of either DFMO (1 to 5 mM) or BNSD-X (50 or 100 μM) was used for the each cell line as determined in pilot experiments. Data are presented as the mean±SD for triplicate cultures from one out of at least three identical experiments for each cell line;
as §2

[6] = T-47D breast cancer cells, read-out: Ki, inhibition of [3H]putrescine uptake
[7] = T-47D breast cancer cells, read-out: Ki, inhibition of [3H]spermidine uptake
[8] = T-47D breast cancer cells, read-out: Ki, inhibition of [14C]spermine uptake

Row | SMILES | cytotoxicity in the absence of aminoguanidine [1] | effect on spermidine-mediated reversal of DFMO-induced growth inhibition, CHO-K1 [2] | Ki [3, 6] | Ki [3, 7] | Ki [3, 8] | times less potent than BSD-3 as a spermidine transport antagonist ([3]; T-47D cells) | effect on spermidine-mediated reversal of DFMO-induced growth inhibition, T-47D [4] | Km ([3]; T-47D breast cancer cells, substrate itself, read-out: Km for [3H]spermidine uptake) | Km ([3]; T-47D cells, Lineweaver-Burke analysis, 0.01-300 μM substrate, read-out: Km for spermidine uptake (Table 2)) | spermidine concentration that completely counteracts DFMO-induced cytostasis [5]
1 | NCCCN(CCCN)CCCN(CCCN)CCCN [19a] | considerably more cytotoxic than their spermidine-like homologs | exhibited no activity | 1600 ± 400 nM | 8300 ± 800 nM | 6200 ± 1700 nM | about 5 times | exhibited no activity |  |  | 
2 | NCCCCN(CCCN)Cc1ccc(CN(CCCN)CCCCN)cc1 [28b] |  | afforded increased resistance to exogenous spermidine | 280 ± 20 nM | 2000 ± 200 nM | 2900 ± 600 nM |  | did not increase the range of spermidine concentrations able to reverse inhibition of cell proliferation by DFMO |  |  | 
3 | NCCCCNCCCN [Spermidine, reference compound] |  |  |  |  |  |  |  | 4.4 ± 0.9 µM | 4.4 ± 0.9 µM | 0.3 to 1 µM
